Test results reported in US8268849B2, “Multifunctional Antioxidants and methods of use thereof” (priority 2007, dated 2012).

Columns and labels:
[1] = Chelation study by ESI-MS, Fe^3+ solution; type: binding; details: 10:1 metal:compound, 45 minutes of mixing
Experimental: (§1) The relative amount of ions bound by JHX-1-JHX-8 was determined by electrospray ionization mass spectrometry (ESI-MS) according to the method of Baron and Hering (Baron and Hering (1998) Spectrometry J. Environ. Qual., 27:844-850). In this method solutions containing Fe^2+, Fe^3+, Cu^1+, Cu^2+, Zn^2+, Ca^2+, Mg^2+ were mixed with compound in ratios of 10:1, 1:1, and 1:10. After 45 minutes of mixing, each solution was directly infused into the MS with constant ionization energy and the relative decreases of the parent peaks in these solutions were determined. […] FIG. 3 illustrates ion binding with increased Fe^+2 concentrations results in decreased compound parent peak heights by ESI-MS when compounds contain appropriate functional groups for metal ion chelation.

[2] = Chelation study by ESI-MS, Cu^1+ solution; type: binding; details: 10:1 metal:compound, 45 minutes of mixing
Experimental: as §1

[3] = Chelation study by ESI-MS, Cu^2+ solution; type: binding; details: 10:1 metal:compound, 45 minutes of mixing
Experimental: as §1

[4] = Chelation study by ESI-MS, Zn^2+ solution; type: binding; details: 10:1 metal:compound, 45 minutes of mixing
Experimental: as §1

[5] = Chelation study by ESI-MS, Ca^2+ solution; type: binding; details: 10:1 metal:compound, 45 minutes of mixing
Experimental: as §1

[6] = Chelation study by ESI-MS, Mg^2+ solution; type: binding; details: 10:1 metal:compound, 45 minutes of mixing
Experimental: as §1

[7] = tested on: SRA-1 human lens epithelium cell line; experiment: MTS cell viability assay; type: cell-based; details: 1.0 mM H2O2, 2 hours, 1 mM compound
Experimental: The SRA-1 human lens epithelium cell line (Ibaraki et al. (1998) Exp. Eye Res., 67:577-85) was used to evaluate the antioxidant activity of JHX-1-8. […] The cells were passaged when 80-90% confluent by treatment with trypsin-EDTA. The cells were plated at a density of 1×10^4 cells onto 96-well plates or 1×10^6 cells onto 100-mm dishes. ROS levels/effects in cells treated with JHX-1-8 were compared to similar cells treated with the water soluble Vitamin E derivative, Trolox (antioxidant control) or no drug (control). […] Cells were cultured in 96-well plates and exposed for 2 hours to media containing 1.0 mM H2O2 (FIG. 5A) or Fenton reagents (1.0 mM H2O2 and 1.0 mM Fe^2+, FIG. 5B) with/without 1 mM JHX-1-8 or Trolox. Viability was measured as the absorbance of MTS stain at 490 nm 1 hour after the addition of 20 μL of […] AQueous One Solution Cell Proliferation Assay to each well. The results were normalized to blank control (100%) since absorbance is directly proportional to the living cell population.

[8] = Drug levels in target tissues after oral administration; type: in vivo, Sprague Dawley rats; details: normal young rats; for drug detected in the brain: chow containing 0.05% drug for 6 days; for Lens drug level / retinal drug level: chow containing 0.05% drug for 6 days (80±10 mg/kg/day), HPLC; for retinal drug level: posterior segment
Experimental: (§2) To determine whether JHX-4 and JHX-8 can reach the target tissues of lens, retina and brain after oral administration, two groups of 4 young (100 g) Sprague Dawley rats were administered rat chow containing 0.05% of either drug for 6 days. […] Lens and posterior segments were homogenized in glass homogenizers in ice-cold PBS, pH 7.4, after addition of an aliquot of JHX-1 as an internal standard. The homogenates were deproteinized with 48 mM NaF and centrifuged. The supernatant was extracted with acetone. The acetone extract was evaporated under vacuum and the residue was dissolved in acetonitrile. Whole brains were similarly extracted; however, brain homogenates were deproteinized with equal amounts of 0.3 N Na2SO4 and 0.3 N Ba(OH)2. Drug levels were measured by reverse-phase HPLC with a Phenomenex LUNA 5 μm C18 column and an isocratic elution of 1:1 MeOH:Water. Detection was conducted at 245 nm and compound levels were quantified using standard curves. Lens and retinal drug levels were 200±11 and 1373±38 ng/mg protein for JHX-4 and 90±5 and 1060±12 ng/mg protein for JHX-8 respectively. Only trace amounts of either compound were detected in the brain.

[9] = Tissue drug levels in diabetic rats after 47 days of feeding; type: in vivo, Sprague Dawley rats
Experimental: as §2
Diabetes was induced in 100 g Sprague Dawley rats with streptozotocin injection (75 mg/kg) and all rats with blood sugar levels >300 mg/dL were divided into 4 groups of 8 rats each. One group received only standard rat chow (untreated diabetic) while each of the other groups received chow containing either 0.0125% ARI Al1576, 0.025% JHX-4 or 0.025% JHX-8. Lens changes were monitored by at 3-5 day intervals by slit lamp following tropicamide mydriasis. As summarized in FIGS. 8A-8C, vacuole formation began by 14 days in the untreated diabetic group with cortical opacities observed by 29 days and mature cataracts by 44 days. […] In the two antioxidant treated groups, vacuole formation was delayed by 19 and 11 days by JHX-4 and JHX-8, respectively, and cortical cataracts by 9 and 3 days, respectively. At the end of the study (47 days) all rats were equally diabetic with HbA1C levels >11.9%. All eyes were enucleated and lens sorbitol levels were measured as previously described (Kador et al. (2007) J. Ocul. Pharmacol. Ther., 23:116-23). […] Tissue levels of JHX-4 and -8 in the lens, neural retina and brain were determined after 47 days of feeding as described above (FIG. 10). […] Overall drug levels in both the lens and retina were ca. 3-fold higher in the diabetic rats with brain levels also now present. This increase may be due to either an accumulation of drug, or increased permeability of tissues and the BBB to drug in streptozotocin diabetic rats (Mooradian et al. (2005) Diabetes, 54:2977-82).

CN(C)S(=O)(=O)N1C(=O)CN(c2ncc(O)cn2)CC1=O [JHX-4, 1-N,N′-dimethylsulfamoyl-4-(5-hydroxy-2-pyrimidyl)piperazine-2,6-dione]
% Parent Peak Remaining at 10:1 Solution of Metal:Compound [1]: 8.2%
% Parent Peak Remaining at 10:1 Solution of Metal:Compound [2]: 4.2%
% Parent Peak Remaining at 10:1 Solution of Metal:Compound [3]: 3.0%
% Parent Peak Remaining at 10:1 Solution of Metal:Compound [4]: 12.7%
% Parent Peak Remaining at 10:1 Solution of Metal:Compound [5]: 100.0%
% Parent Peak Remaining at 10:1 Solution of Metal:Compound [6]: 100.0%
protection against H2O2 induced loss of cell viability [7]: protecting against H2O2 induced loss of cell viability
drug detected in the brain [8]: trace amounts
Lens drug level [8]: 200±11 ng/mg protein
retinal drug level [8]: 1373±38 ng/mg protein
brain levels of drug [9]: now present
drug levels in both the lens and retina, diabetic rats versus normal rats [9]: ca. 3 fold

COc1nc(N2CC(=O)N(S(=O)(=O)N(C)C)C(=O)C2)nc(OC)c1O [JHX-8, 1-N,N′-dimethylsulfamoyl-4-(4,6-dimethoxy-5-hydroxy-2-pyrimidyl)piperazine-2,6-dione]
% Parent Peak Remaining at 10:1 Solution of Metal:Compound [1]: 8.2%
% Parent Peak Remaining at 10:1 Solution of Metal:Compound [2]: 4.0%
% Parent Peak Remaining at 10:1 Solution of Metal:Compound [3]: 3.6%
% Parent Peak Remaining at 10:1 Solution of Metal:Compound [4]: 14.6%
% Parent Peak Remaining at 10:1 Solution of Metal:Compound [5]: 100.0%
% Parent Peak Remaining at 10:1 Solution of Metal:Compound [6]: 100.0%
protection against H2O2 induced loss of cell viability [7]: protecting against H2O2 induced loss of cell viability
drug detected in the brain [8]: trace amounts
Lens drug level [8]: 90±5 ng/mg protein
retinal drug level [8]: 1060±12 ng/mg protein
brain levels of drug [9]: now present
drug levels in both the lens and retina, diabetic rats versus normal rats [9]: ca. 3 fold
